Source: ChEMBL document CHEMBL1201862, “PubChem BioAssay data set” (2004)
“And” between values parts separate entries of the source, which are not always exact repeats. Equal entries are not always repeated.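 Step 1: Grow cells in 96-well plates. Step 2: Expose to compound for 48 hours at 5 concentrations. Step 3: Interpolate endpoints linearly; if unreached, use highest concentration. GI50 = concentration required for 50% inhibition of growth.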 The source made the active and inactive calls. No stated cut-off is given here; in the data, active = GI50 up to about 1.1 µM and inactive = higher.

Columns and labels:
Assay in all cases: NCI tumour cell line growth inhibition, 48 h
Malme-3M = system: Malme-3M
HOP-62 = system: HOP-62
RXF 393 = system: RXF 393
HCT-15 = system: HCT-15
M19-MEL = system: M19-MEL
RPMI-8226 = system: RPMI-8226
NCI-H522 = system: NCI-H522
SF-295 = system: SF-295
M14 = system: M14
DMS-273 = system: DMS-273
DLD-1 = system: DLD-1
KM-20L2 = system: KM-20L2
OVCAR-8 = system: OVCAR-8
A549 = system: A549
OVCAR-3 = system: OVCAR-3
MDA-N = system: MDA-N
DU-145 = system: DU-145
MDA-MB-435 = system: MDA-MB-435
MDA-MB-231 = system: MDA-MB-231
T47D = system: T47D

Structure (SMILES) | GI50 (Malme-3M) | GI50 (HOP-62) | GI50 (RXF 393) | GI50 (HCT-15) [µM] | GI50 (M19-MEL) | GI50 (RPMI-8226) | GI50 (NCI-H522) | GI50 (SF-295) | GI50 (M14) | GI50 (DMS-273) | GI50 (DLD-1) | GI50 (KM-20L2) | GI50 (OVCAR-8) | GI50 (A549) | GI50 (OVCAR-3) | GI50 (MDA-N) | GI50 (DU-145) | GI50 (MDA-MB-435) | GI50 (MDA-MB-231) | GI50 (T47D)
Cn1nc2ccc3nccc(N(CCO)CCO)c3c2n1 | > 100 µM (inactive) | > 100 µM (inactive) | > 100 µM (inactive) | > 100 | > 100 µM (inactive) | > 100 µM (inactive) | > 100 µM (inactive) | > 100 µM (inactive) | > 100 µM (inactive) | > 100 µM (inactive) | > 100 µM (inactive) | > 100 µM (inactive) | > 100 µM (inactive) | > 100 µM (inactive) | > 100 µM (inactive) | – | – | – | – | –
CC(C)OP(=O)(OC(C)C)c1nc(-c2ccccc2)n(-c2ccc([N+](=O)[O-])cc2)n1 | > 100 µM (inactive) | > 100 µM (inactive) | 0.0111 µM (active) | > 100 | > 100 µM (inactive) | > 100 µM (inactive) | 98.9 µM (inactive) | > 100 µM (inactive) | > 100 µM (inactive) | > 100 µM (inactive) | > 100 µM (inactive) | > 100 µM (inactive) | > 100 µM (inactive) | > 100 µM (inactive) | > 100 µM (inactive) | – | – | – | – | –
CC1=C(C(=O)Nc2ccc(Cl)c(Cl)c2)C(c2ccc([N+](=O)[O-])cc2)C(C(=O)Nc2ccc(Cl)c(Cl)c2)=C(C)N1 | 2.57 µM (inactive) | 2.54 µM (inactive) | 1.78 µM (inactive) | 2.6 | 1.82 µM (inactive) | 1.45 µM (inactive) | 2.55 µM (inactive) | 2.7 µM (inactive) | 1.85 µM (inactive) | 2.91 µM (inactive) | 3.41 µM (inactive) | 1.66 µM (inactive) | 2.13 µM (inactive) | 2.82 µM (inactive) | 1.66 µM (inactive) | – | – | – | – | –
OC(CBr)C(O)C(O)C(O)CBr (configuration not stated) | > 100 µM (inactive) and > 85.5 µM (inactive) | 28.1 µM (inactive) and 28.3 µM (inactive) | > 100 µM (inactive) and > 88.9 µM (inactive) | – | > 100 µM (inactive) | > 65.8 µM (inactive) and > 38.5 µM (inactive) | > 67.1 µM (inactive) and > 48.6 µM (inactive) | – | 28.1 µM (inactive) | 26.6 µM (inactive) | > 100 µM (inactive) | > 100 µM (inactive) | > 100 µM (inactive) and 59.4 µM (inactive) | 19 µM (inactive) and 36.9 µM (inactive) | > 55.1 µM (inactive) | > 45.9 µM (inactive) | 12.7 µM (inactive) | > 61.2 µM (inactive) | > 100 µM (inactive) | > 100 µM (inactive)
COc1cc(OC)c(OC)cc1/C=C\c1ccnc2ccccc12 | 0.7 µM (active) | 0.582 µM (active) | 0.466 µM (active) | 0.437 | 0.851 µM (active) | 0.577 µM (active) | 0.333 µM (active) | 0.48 µM (active) | 0.574 µM (active) | 0.317 µM (active) | 0.944 µM (active) | 0.948 µM (active) | 1.25 µM (inactive) | 0.849 µM (active) | 0.387 µM (active) | 0.185 µM (active) | 1.01 µM (active) | 0.156 µM (active) | 0.796 µM (active) | 0.771 µM (active)
[O-][S+]1c2ccccc2N=C(c2ccc(Cl)cc2)CC1c1cccs1 (configuration not stated) | 57.8 µM (inactive) | 79.3 µM (inactive) | 14.4 µM (inactive) | 15.5 | 17.7 µM (inactive) | 17 µM (inactive) | 27.4 µM (inactive) | 16.6 µM (inactive) | 15.5 µM (inactive) | 14.6 µM (inactive) | 12.2 µM (inactive) | 20.9 µM (inactive) | 17.8 µM (inactive) | 32.4 µM (inactive) | 1.68 µM (inactive) | – | – | – | – | –
Cc1cc(O)c2c(c1)C(=O)c1c(c(O)cc(O)c1-c1c(O)cc(O)c3c1C(=O)c1cc(C)cc(O)c1C3=O)C2=O [SKYRIN] | 15 µM (inactive) | 12.4 µM (inactive) | 19.3 µM (inactive) | 8.61 | 17.1 µM (inactive) | 5.93 µM (inactive) | 17.1 µM (inactive) | 9.25 µM (inactive) | – | 7.76 µM (inactive) | 8.75 µM (inactive) | 16.3 µM (inactive) | 8.26 µM (inactive) | 8.87 µM (inactive) | 6.31 µM (inactive) | – | – | – | – | –
FC(F)(F)c1ccc2c(c1)N(CCCNCCN1CCOCC1)c1ccccc1S2 | 2.44 µM (inactive) | 12.4 µM (inactive) | 2.62 µM (inactive) | 6.52 | 7.14 µM (inactive) | 7.19 µM (inactive) | 14.9 µM (inactive) | 13.3 µM (inactive) | 1.95 µM (inactive) | 16.8 µM (inactive) | 16.2 µM (inactive) | 4.69 µM (inactive) | 16.6 µM (inactive) | 14.4 µM (inactive) | 11.4 µM (inactive) | – | – | – | – | –
Cc1c(N(C)C)ccc2c(=O)c3cccc(CC(=O)O)c3oc12 | > 100 µM (inactive) | > 100 µM (inactive) | > 100 µM (inactive) | > 100 | > 100 µM (inactive) | > 100 µM (inactive) | > 100 µM (inactive) | > 100 µM (inactive) | > 100 µM (inactive) | > 100 µM (inactive) | > 100 µM (inactive) | > 100 µM (inactive) | > 100 µM (inactive) | > 100 µM (inactive) | > 100 µM (inactive) | > 100 µM (inactive) | > 100 µM (inactive) | > 100 µM (inactive) | > 100 µM (inactive) | > 100 µM (inactive)
